The source of these data is patent US12624049B2, “Salt and crystal forms of 4-amino-5-(6-(4-methylpiperazin-1-yl)-1H-benzo[d]imidazol-z-yl)thieno[2.3-b]pyridin-6(7H)-one” (UNIVERSITY HEALTH NETWORK, priority 2020, dated 2026).

Values after ≈ are worked out from the molar mass of the structure shown. Where a name gives a salt, the structure may show the parent alone. Read-outs that look alike come from different tables or passages of the source.

Series [1] in a line: Hygroscopicity measurement by DVS apparatus. Type of series: physicochemical. The conditions noted are these: for Change in Mass (%) Water uptake at 30% RH / Change in Mass (%) Water uptake at 60% RH / Change in Mass (%) Water uptake at 90% RH: DVS, 25° C. The method, then:
In another embodiment, 1:1 Compound (I) tartrate salt is characterized by a hygroscopicity measurement, wherein water uptake is less than 4% (e.g. 2% or 1%) of the mass of the tartrate salt at 90% relative humidity (RH); or less than 2% (e.g. 1% or 0.5%) of the mass of the tartrate salt at 60% RH; or less than 1% (e.g. 0.5% or 0.1%) of the mass of the tartrate salt at 30% RH. The hygroscopicity in different relative humidity (RH) is measured under following conditions: • i) drying between 0.5 and 1.5 mg of the tartrate salt under a nitrogen atmosphere at 0% relative humidity for 2 hours; • ii) increasing or decreasing the relative humidity in steps of 10% from 0% to 90% then to 0%; • iii) maintaining the relative humidity at each step until the mass change compared to the mass of the original tartrate salt per minute is less than 0.01 (%/min), provided that minimum and maximum duration time at each step is 10 minutes and 180 minutes, respectively; and • iv) measuring the mass of the tartrate salt at the desired relative humidity (e.g., 90%, 60%, or 30%) and wherein steps i)-iv) are carried out at 25° C.
The compound to be tested is submitted to hygroscopicity test by means of a DVS apparatus. The testing parameters are in Table 5.

The nature of series [2]: Solubility in water, SGF and FaSSIF (supernatant by HPLC/UPLC). Type of series: physicochemical. Particulars: for Solubility (mg/mL) FaSSIF: fasted state simulated intestinal fluid buffer, target 2 mg/mL; for Solubility (mg/mL) FaSSIF / Solubility (mg/mL) SGF: 24 h at 37° C.; for Solubility (mg/mL) SGF: simulated gastric fluid buffer, target 10 mg/mL; for Solubility (mg/mL) water: stirred 1 h at ambient temperature, analyzed at 24 h. The procedure: The compounds to be tested were prepared in 3 different media as described below.
Samples prepared in water: approximately 30-40 mg of test material was weighted into a glass vial. 1 mL of water was added. The sample was stirred for 1 h at ambient temperature and the sample was analyzed by HPLC at 24 h.
Samples prepared in simulated gastric fluid (SGF) buffer: approximately 40 mg of test material was weighted into a glass vial. 4 mL of SGF buffer was added to make a target concentration at 10 mg/mL. The sample was stirred for 24 h at 37° C. and the sample was analyzed by HPLC at 24 h.
Samples prepared in fasted state simulated intestinal fluid (FaSSIF) buffer: approximately 8 mg of test material was weighted into a glass vial. 4 mL of FassiF buffer was added to make a target concentration at 2 mg/mL. The sample was stirred for 24 h at 37° C. and the sample was analyzed by HPLC at 24 h.
The samples were stirred for 1 h at ambient temperature or 24 h at 37° C. The samples were then centrifuged and the resulting supernatants were analyzed by HPLC to determine the solubility.

Series [3] is described as follows: Pharmacokinetics after single oral dose (powder in capsule), Compound (I) plasma level by LC/MS. Type of series: in vivo, male Beagle dogs. The procedure:
A single dose as powder in capsule of Compound (I), 1:1 Compound (I) mono HCl salt (Batch 3), di-HCl salt of Compound (I), and 1:1 Compound (I) tartrate salt was administrated to male Beagle dogs at either 125 mg/kg or 150 mg/kg. Blood samples were collected for up to 24 h and the plasma was analyzed for Compound (I) plasma level by LC/MS.

A short description of series [4]: Long term stability under 3 storage conditions (appearance, HPLC purity/impurities, XRPD form). The conditions noted are these: for Purity / Total amount of impurities: HPLC; for Crystalline form: XRPD. Type of series: physicochemical. The method, then:
A representative method used for stability evaluation is summarized Table 2.
Purity and stability of 4-amino-5-(6-(4-methylpiperazin-1-yl)-1H-benzo[d]imidazol-2-yl)thieno[2,3-b]pyridin-6(7H)-one (I) tartrate have been tested. Stability samples were prepared and stored under 3 different storage conditions: 2-8° C./ambient RH, 25° C./60% RH, and 40° C./75% RH. Stability samples were removed from their storage conditions within each pull window, and the samples were allowed to equilibrate to ambient conditions prior to analysis. The appearance was evaluated by visual inspection, purity and total amount of impurities were analyzed by HPLC and crystalline form was characterized by XRPD.

The term Cmax denotes the highest concentration seen after dosing. As to `CN1CCN(c2ccc3nc(-c4c(N)c5ccsc5[nH]c4=O)[nH]c3c2)CC1` [Free base, 4-amino-5-(6-(4-methylpiperazin-1-yl)-1H-benzo[d]imidazol-2-yl)thieno[2,3-b]pyridin-6(7H)-one], in series [1], the “Change in Mass (%) Water uptake at 30% RH” value (“Change in Mass … at 30% RH” for short) is recorded as 0.5%, the “Change in Mass (%) Water uptake at 60% RH” value (“Change in Mass … at 60% RH” for short) amounted to 0.9% and the “Change in Mass (%) Water uptake at 90% RH” value (“Change in Mass … at 90% RH” for short) stood at 26%. In series [2], the “Solubility (mg/mL) FaSSIF” value was 0.09 mg/mL (≈ 237 µM), the “Solubility (mg/mL) SGF” value is recorded as 0.5 mg/mL (≈ 1310 µM) and the “Solubility (mg/mL) water” value turned out to be 0.3 mg/mL (≈ 788 µM). Besides, the “AUC0−tlast” value in series [3] (beagle dogs, oral dose 125 mg/kg, powder in capsule, plasma, up to 24 h, 125 mg/kg) stood at 2264 ng·h/mL. Also, the Cmax in series [3] (male, beagle, dog, plasma, po, 125 mg/kg, beagle dogs, oral dose 125 mg/kg, powder in capsule, plasma, read-out: Cmax) is 301 ng/mL.

Regarding `CN1CCN(c2ccc3[nH]c(-c4c(N)c5ccsc5[nH]c4=O)nc3c2)CC1` [Di-HCl salt, 4-amino-5-(6-(4-methylpiperazin-1-yl)-1H-benzo[d]imidazol-2-yl)thieno[2,3-b]pydidin-6(7H)-one (I) Di-Hydrochloride], in series [2] (Di-Hydrochloride), the “Solubility (mg/mL) water” value is 3.3 mg/mL. In addition, the “AUC0−tlast” value in series [3] (beagle dogs, oral dose 125 mg/kg, powder in capsule, plasma, up to 24 h, Di-Hydrochloride, 125 mg/kg) was 6862 ng·h/mL. Besides, in series [3] (beagle dogs, oral dose 125 mg/kg, powder in capsule, plasma, Di-Hydrochloride, 125 mg/kg), the Cmax was determined as 530 ng/mL.

For `CN1CCN(c2ccc3nc(-c4c(N)c5ccsc5[nH]c4=O)[nH]c3c2)CC1` [Tartrate salt, 4-amino-5-(6-(4-methylpiperazin-1-yl)-1H-benzo[d]imidazol-2-yl)thieno[2,3-b]pyridin-6(7H)-one (I) tartrate], in series [1], the “Change in Mass … at 30% RH” value is given as 0.06%. Also, the “Change in Mass … at 60% RH” value in series [1] worked out at 0.3%. In addition, the “Change in Mass … at 90% RH” value in series [1] came out at 0.7%. In series [1] (crystalline form, see Example 6), the “Hygroscopicity (in words)” value is reported as “non-hygroscopic”. Also, the Purity in series [4] (5° C./ambient RH, 1 month) amounted to 100%; in series [4] (5° C./ambient RH, 3 month) it was 100%; in series [4] (5° C./ambient RH, 6 month) it was 100%; in series [4] (5° C./ambient RH, 12 month), 100%; in series [4] (5° C./ambient RH, Initial), 100%; in series [4] (25° C./60% RH, 1 month), 100%. The Purity in series [4] (25° C./60% RH, 3 month) is listed as 100%; in series [4] (25° C./60% RH, 6 month), 100%; in series [4] (25° C./60% RH, 12 month), 100%; in series [4] (25° C./60% RH, Initial), 100%; in series [4] (40° C./75% RH, 1 month), 100%; in series [4] (40° C./75% RH, 3 month), 100%. Further, the Purity in series [4] (40° C./75% RH, 6 month) amounted to 100%; in series [4] (40° C./75% RH, 12 month), 100%; in series [4] (40° C./75% RH, Initial) it was 100%. In addition, the “Total amount of impurities” value stood at 0.03% in series [4] (5° C./ambient RH, 1 month); 0.0% in series [4] (5° C./ambient RH, 3 month); 0.03% in series [4] (5° C./ambient RH, 6 month); 0.03% in series [4] (5° C./ambient RH, 12 month); 0.03% in series [4] (5° C./ambient RH, Initial); 0.02% in series [4] (25° C./60% RH, 1 month). The “Total amount of impurities” value in series [4] (25° C./60% RH, 3 month) is on record as 0.03%; in series [4] (25° C./60% RH, 6 month), 0.03%; in series [4] (25° C./60% RH, 12 month), 0.03%; in series [4] (25° C./60% RH, Initial) it was 0.03%; in series [4] (40° C./75% RH, 1 month) it was 0.02%; in series [4] (40° C./75% RH, 3 month) it was 0.03%. Further, the “Total amount of impurities” value in series [4] (40° C./75% RH, 6 month) was determined as 0.03%; in series [4] (40° C./75% RH, 12 month) it was 0.03%; in series [4] (40° C./75% RH, Initial) it was 0.03%. Besides, the Crystalline form entry is on record as “Yes” in series [4] (5° C./ambient RH, Initial); “Yes” in series [4] (25° C./60% RH, Initial); “Yes” in series [4] (40° C./75% RH, Initial). For the same compound, in series [4] (see Example 8), the “Shelf life (in words)” value is “extended shelf life”. In series [2], the “Solubility (mg/mL) FaSSIF” value is on record as 0.02 mg/mL. Also, the “Solubility in water and in simulated gastric fluids (in words)” value in series [2] (see Example 7 and Table 7) is on record as “improved solubility”. In series [2], the “Solubility (mg/mL) SGF” value was 9.0 mg/mL. The “Plasma concentrations in dogs following oral administration (in words)” value in series [3] (compared to the free base and the mono HCl salt) is on record as “improved plasma concentrations”. Also, the AUC(0-t) in series [3] (male, beagle, dog, plasma, po, 150 mg/kg, beagle dogs, oral dose 150 mg/kg, powder in capsule, plasma, up to 24 h, read-out: AUC0−tlast) came to 6550 ng·h/mL. Further, the maximum concentration (Cmax) in series [3] (male, beagle, dog, plasma, po, 150 mg/kg, beagle dogs, oral dose 150 mg/kg, powder in capsule, plasma, read-out: Cmax) came to 514 ng/mL.

Take `CN1CCN(c2ccc3nc(-c4c(N)c5ccsc5[nH]c4=O)[nH]c3c2)CC1` [Mono HCl salt (Batch 3)]: in series [1], the “Change in Mass … at 30% RH” value worked out at 3.7%, the “Change in Mass … at 60% RH” value stood at 6.1% and the “Change in Mass … at 90% RH” value came out at 38.3%. In addition, in series [2] (Batch 3), the “Solubility (mg/mL) FaSSIF” value is given as 0.22 mg/mL, the “Solubility (mg/mL) SGF” value was 9.0 mg/mL and the “Solubility (mg/mL) water” value was determined as 10.2 mg/mL. Moreover, the “AUC0−tlast” value in series [3] (beagle dogs, oral dose 125 mg/kg, powder in capsule, plasma, up to 24 h, listed as Mono HCl (Batch 3), 125 mg/kg) was 4354 ng·h/mL. In addition, in series [3] (beagle dogs, oral dose 125 mg/kg, powder in capsule, plasma, listed as Mono HCl (Batch 3), 125 mg/kg), the highest concentration (Cmax) is on record as 547 ng/mL.
